Source: patent US20130078260A1, “COMPOUNDS TARGETING THE VEGF AND/OR HIF PATHWAY SUCH AS SORAFENIB OR VATALANIB FOR USE IN THE TREATMENT OF OTITIS MEDIA” (MEDICAL RESEARCH COUNCIL, priority 2010, published 2013)
Where two headings read alike, the source gives them in different places. Marks after values point to notes of the source that are not given here.

What was measured:
[1] = system: WT mice; assay: Click-evoked ABR change in drug-treated WT littermate mice; assay type: in vivo, mouse
Procedure: (§1) Drug treatment, ABR and analysis of inflammation. […] The sham
(§2) Jbo/+ group was matched for age, gender and pre-trial ABR (30-60 dB) and received vehicle alone. A click-evoked ABR (Zheng, Q. Y., et al. (1999) Hearing Res. 130, 94-107) was measured at the beginning and end of the trial (or after 3 wk in the 50 mg/kg PTK787 trial). For ABR with recovery, anesthesia was induced by i.p. injection with a mixture of 10 mg/kg xylazine and 100 mg/kg ketamine and was reversed by 5 mg/kg atipamezole hydrochloride. Histology was assessed at 4 wk in both PTK787 trials.
(§3) Statistics. Student t-tests or Mann Whitney U tests (for ABR measurements where interval data was in 5 dB increments) were performed and test values p<0.05 were considered significant. Percentages were arcsine transformed before using t-tests. In the drug trials, 1-tailed tests were used compare drug and sham-treated groups, otherwise 2-tailed tests were used.

[2] = system: Jbo/+ mice middle ear mucosa; assay: Histological analysis of inflammation in middle ear mucosa of drug-treated Jbo/+ mice; assay type: in vivo, mouse
Procedure: as §1, §2
Image capture and analysis. Digital images were captured on an Olympus BX51 microscope using ×20, ×40 or ×60 Plan Achromat objectives with neutral density filter, on a ColorView Soft Imaging System software using automatic exposures. In the drug trials, H&E stained sections for image analysis were scanned at ×400 magnification on a Nanozoomer digital pathology system (Hamamatsu Photonics). Eardrum thickness and the thickness of the mucosa along its medial surface (avoiding the cochlea and the region adjacent to the opening of the Eustachian tube) were averaged from 5 measurements. The number of capillaries and lymphatic vessels and their respective diameters were measured in a standardized 1000 μm length of medial mucosa. The treatment and genotype were blinded from the assessor when making the morphological measurements.
as §3

[3] = system: Jbo/+ mice; assay: Click-evoked Auditory Brain Stem response (ABR) change in drug-treated Junbo (Jbo/+) mice, chronic otitis media model; assay type: in vivo, mouse
Procedure: as §1, §2, §3

[4] = system: mice; details: mouse, in vivo, po
Text: as §1

[5] = both 50 mg/kg and 75 mg/kg trials, 4 wk, vs sham

Clc1ccc(Nc2nnc(Cc3ccncc3)c3ccccc23)cc1 [PTK787/ZK 222584]
ΔABR (dB) WT ([1]; 50 mg/kg, 21 days, mean ± SEM (n)): −0.6 ± 1.1 (8) dB | ΔABR (dB) WT ([1]; 75 mg/kg, 28 days, mean ± SEM (n)): 0.0 ± 0.9 (8) dB | Mucosal thickening ([2]; 50 mg/kg trial, 4 wk, vs sham): moderated mucosal thickening | Lymphatic vessel dilation ([2]; 75 mg/kg dosage group, 4 wk, vs sham): moderated | Angiogenesis (blood vessel number in mucosa) [2, 5]: reduced | Lymphatic vessel number [2, 5]: reduced

CCN(CC)CCNC(=O)c1c(C)[nH]c(/C=C2\C(=O)Nc3ccc(F)cc32)c1C [SU-11248]
Effect on hearing loss ([3]; Junbo mice, 28 d treatment, vs sham (FIG. 6B)): moderates hearing loss

CNC(=O)c1cc(Oc2ccc(NC(=O)Nc3ccc(Cl)c(C(F)(F)F)c3)cc2)ccn1 [BAY 43-9006]
ΔABR (dB) WT ([1]; 30 mg/kg, 15 days, mean ± SEM (n)): −2.0 ± 1.2 (5) dB | ΔABR (dB) Jbo/+ drug ([3]; Jbo/+ mice, 30 mg/kg, 15 days, oral gavage once a day, mean ± SEM (n)): 0.9 ± 1.5 (11)^e dB | Effect on hearing loss ([3]; Jbo/+ mice, treatment for 2 wk, vs sham control): reduced hearing loss | Tolerability / adverse signs ([4]; Junbo (Jbo/+) mutant and WT, 2 wk): not as well tolerated as PTK787 | Tolerability / adverse signs [4]: mice suddenly became piloerect | Lymphatic vessel dilation ([2]; 2 wk trial, n=11, sham 14.2±0.9 μm, P=0.0072): 9.9±1.0 μm

CN(CCOc1ccc(CC2SC(=O)NC2=O)cc1)c1ccccn1 (stereo not shown) [Rosiglitazone]
ΔABR (dB) WT ([1]; 20 mg/kg, 28 days, mean, SEM (n) printed in the row below): 1.4 dB | ΔABR (dB) Jbo/+ drug ([3]; Jbo/+ mice, 20 mg/kg, 28 days, mean, SEM (n) printed in the row below): 9.7 dB

CO[C@H]1/C=C\C=C(/C)C(=O)NC2=CC(=O)C(NCCN(C)C)=C(C[C@@H](C)C[C@H](OC)[C@H](O)[C@@H](C)/C=C(\C)[C@@H]1OC(N)=O)C2=O [17-DMAG, 17-dimethylaminoethylamino-17-demethoxy-geldanamycin]
Effect on hearing loss ([3]; Jbo/+ mice, 10 mg/kg, 28 d treatment, vs sham (FIG. 6E)): moderated hearing loss
